In ChEMBL document CHEMBL4422633, “Antioxidant-Inspired Drug Discovery: Antitumor Metabolite Is Formed in Situ from a Hydroxycinnamic Acid Derivative upon Free-Radical Scavenging” (J Med Chem, 2019):

Legend:
[1] = tested on: HaCaT; test: Induction of apoptosis in human HaCaT cells assessed as necrotic cells at 40 nM after 24 hrs by Annexin V/propidium iodide-staining based flow cytometry (reference value: 1.88 +/- 0.02%); assay type: cell-based; details: 0.04 µM
[2] = tested on: A549; test: Cytotoxicity against human A549 cells assessed as reduction in cell viability after 72 hrs by MTT assay; assay type: functional, cell-based; details: A549, 72 h
[3] = tested on: SiHa; test: Cytotoxicity against human SiHa cells assessed as reduction in cell viability after 72 hrs by MTT assay; assay type: functional, cell-based
[4] = tested on: NCI-H460; test: Induction of apoptosis in human NCI-H460 cells assessed as late apoptotic cells at 40 nM after 24 hrs by Annexin V/propidium iodide-staining based flow cytometry (reference value: 0.93 +/- 0.04%); assay type: functional
[5] = tested on: HaCaT; test: Cytotoxicity against human HaCaT cells assessed as reduction in cell viability after 72 hrs by MTT assay; assay type: cell-based
[6] = Induction of apoptosis in human HaCaT cells assessed as viable cells at 40 nM after 24 hrs by Annexin V/propidium iodide-staining based flow cytometry (reference value: 95.63 +/- 3.83%); assay type: cell-based; details: read-out: Activity
[7] = tested on: NCI-H661; test: Cytotoxicity against human NCI-H661 cells assessed as reduction in cell viability after 72 hrs by MTT assay; assay type: functional, cell-based; details: NCI-H661, 72 h
[8] = tested on: NCI-H460; test: Induction of apoptosis in human NCI-H460 cells assessed as early apoptotic cells at 40 nM after 24 hrs by Annexin V/propidium iodide-staining based flow cytometry (reference value: 0.45 +/- 0.01%); assay type: functional
[9] = tested on: NCI-H460; test: Cytotoxicity against human NCI-H460 cells assessed as reduction in cell viability after 72 hrs by MTT assay; assay type: functional, cell-based; details: NCI-H460, 72 h
[10] = Cytotoxicity against mouse L5178 cells assessed as reduction in cell viability after 72 hrs by MTT assay; assay type: functional, cell-based; details: L5178, 72 h
[11] = tested on: NCI-H460; test: Induction of apoptosis in human NCI-H460 cells assessed as viable cells at 40 nM after 24 hrs by Annexin V/propidium iodide-staining based flow cytometry (reference value: 96.49 +/- 0.96%); assay type: functional; details: NCI-H460, 24 h, read-out: Activity
[12] = Cytotoxicity against mouse L5178B1 cells transfected with pHa MDR1/A retrovirus assessed as reduction in cell viability after 72 hrs by MTT assay; assay type: functional, cell-based; details: MDR1, 72 h
[13] = tested on: HaCaT; test: Induction of apoptosis in human HaCaT cells assessed as early apoptotic cells at 40 nM after 24 hrs by Annexin V/propidium iodide-staining based flow cytometry (reference value: 0.23 +/- 0.01%); assay type: cell-based; details: 0.04 µM
[14] = Cytotoxicity against human NCI-H460/R cells transfected with MDR assessed as reduction in cell viability after 72 hrs by MTT assay; assay type: functional, cell-based; details: NCI-H460, 72 h
[15] = tested on: HaCaT; test: Induction of apoptosis in human HaCaT cells assessed as late apoptotic cells at 40 nM after 24 hrs by Annexin V/propidium iodide-staining based flow cytometry (reference value: 0.93 +/- 0.04%); assay type: cell-based; details: 0.04 µM
[16] = tested on: NCI-H460; test: Induction of apoptosis in human NCI-H460 cells assessed as necrotic cells at 40 nM after 24 hrs by Annexin V/propidium iodide-staining based flow cytometry (reference value: 2.13 +/- 0.02%); assay type: functional

For `COc1cccc2c1C(=O)c1c(O)c3c(c(O)c1C2=O)C[C@@](O)(C(=O)CO)C[C@@H]3O[C@H]1C[C@H](N)[C@H](O)[C@H](C)O1` [DOXORUBICIN], the Activity [1] was 7.82%, the IC50 [2] was 550 nM and the IC50 [3] was 760 nM. It also gave an Activity [4] of 4.11%, an IC50 [5] of 30 nM and a viability at 24 h, 0.04 µM [6] of 78.1%. It also gave an IC50 [7] of 350 nM, an Activity [8] of 4.05% and an IC50 [9] of 40 nM. The IC50 [10] was 410 nM, the viability at 0.04 µM [11] was 85.1% and the IC50 [12] was 11800 nM. The Activity [13] was 11.03%, the IC50 [14] was 1890 nM and the Activity [15] was 3.04%. For the same compound, the Activity [16] was 6.7%.
